Assay results as given in US9125913B2, “Bcl-2-selective apoptosis-inducing agents for the treatment of cancer and immune diseases” (AbbVie Inc., priority 2008, dated 2015).

Tested on: GST-Bcl-2
Test: TR-FRET binding assay, Bcl-2
Conditions: TR-FRET Ki values
In short: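 Ki values come from Wang's competitive-binding equation applied to TR-FRET signal (excitation 340/35 nm; emission 520/525 nm F-Bak peptide, 495/510 nm Tb antibody). Protein, probe and antibody incubated with compound 3 h at room temperature; dilution series began at 50 μM as 2× stock in 10% DMSO.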

Compound	Binding selectivity ratio (Bcl-XL Ki/Bcl-2 Ki)
CC1(C)CCC(CN2CCN(c3ccc(C(=O)NS(=O)(=O)c4cnc(NCC5CCOCC5)c(Br)c4)c(Oc4ccc5[nH]ccc5c4)c3)CC2)=C(c2ccc(Cl)cc2)C1 [EXAMPLE 350, N-({5-bromo-6-[(tetrahydro-2H-pyran-4-ylmethyl)amino]pyridin-3-yl}sulfonyl)-4-(4-{[2-(4-chlorophenyl)-4,4-dimethylcyclohex-1-en-1-yl]methyl}piperazin-1-yl)-2-(1H-indol-5-yloxy)benzamide]	>110.6
CC1(C)CCC(CN2CCN(c3ccc(C(=O)NS(=O)(=O)c4ccc(NCCN5CCOCC5)c(S(=O)(=O)C(F)(F)F)c4)c(Oc4ccc5[nH]ccc5c4)c3)CC2)=C(c2ccc(Cl)cc2)C1 [EXAMPLE 351, 4-(4-{[2-(4-chlorophenyl)-4,4-dimethylcyclohex-1-en-1-yl]methyl}piperazin-1-yl)-2-(1H-indol-5-yloxy)-N-({4-[(2-morpholin-4-ylethyl)amino]-3-[(trifluoromethyl)sulfonyl]phenyl}sulfonyl)benzamide]	>418.7
CC1(C)CCC(CN2CCN(c3ccc(C(=O)NS(=O)(=O)c4cnc(NCC5CCOCC5)c(C#N)c4)c(Oc4ccc5[nH]ccc5c4)c3)CC2)=C(c2ccc(Cl)cc2)C1 [EXAMPLE 352, 4-(4-{[2-(4-chlorophenyl)-4,4-dimethylcyclohex-1-en-1-yl]methyl}piperazin-1-yl)-N-({5-cyano-6-[(tetrahydro-2H-pyran-4-ylmethyl)amino]pyridin-3-yl}sulfonyl)-2-(1H-indol-5-yloxy)benzamide]	>96.7
CN1CCC(Oc2ccc(S(=O)(=O)NC(=O)c3ccc(N4CCN(CC5=C(c6ccc(Cl)cc6)CC(C)(C)CC5)CC4)cc3Oc3ccc4[nH]ccc4c3)cc2[N+](=O)[O-])CC1 [EXAMPLE 353, 4-(4-{[2-(4-chlorophenyl)-4,4-dimethylcyclohex-1-en-1-yl]methyl}piperazin-1-yl)-2-(1H-indol-5-yloxy)-N-({4-[(1-methylpiperidin-4-yl)oxy]-3-nitrophenyl}sulfonyl)benzamide]	>2260.0
CN1CCC(COc2ccc(S(=O)(=O)NC(=O)c3ccc(N4CCN(CC5=C(c6ccc(Cl)cc6)CC(C)(C)CC5)CC4)cc3Oc3ccc4[nH]ccc4c3)cc2[N+](=O)[O-])CC1 [EXAMPLE 354, 4-(4-{[2-(4-chlorophenyl)-4,4-dimethylcyclohex-1-en-1-yl]methyl}piperazin-1-yl)-2-(1H-indol-5-yloxy)-N-({4-[(1-methylpiperidin-4-yl)methoxy]-3-nitrophenyl}sulfonyl)benzamide]	148.8
O=C(NS(=O)(=O)c1ccc(NCC2CCOCC2)c([N+](=O)[O-])c1)c1ccc(N2CCN(CC3=C(c4ccc(Cl)cc4)CCN(CCCO)C3)CC2)cc1Oc1cccc2[nH]ccc12 [EXAMPLE 355, 4-(4-{[4-(4-chlorophenyl)-1-(3-hydroxypropyl)-1,2,5,6-tetrahydropyridin-3-yl]methyl}piperazin-1-yl)-2-(1H-indol-4-yloxy)-N-({3-nitro-4-[(tetrahydro-2H-pyran-4-ylmethyl)amino]phenyl}sulfonyl)benzamide]	>5489.5
CC1(C)CCC(CN2CCN(c3ccc(C(=O)NS(=O)(=O)c4ccc(NCC5CCN(C(=O)OCc6ccccc6)CC5)c([N+](=O)[O-])c4)c(Oc4ccc5[nH]ccc5c4)c3)CC2)=C(c2ccc(Cl)cc2)C1 [EXAMPLE 356, benzyl 4-({[4-({[4-(4-{[2-(4-chlorophenyl)-4,4-dimethylcyclohex-1-en-1-yl]methyl}piperazin-1-yl)-2-(1H-indol-5-yloxy)benzoyl]amino}sulfonyl)-2-nitrophenyl]amino}methyl)piperidine-1-carboxylate]	>131.6
CC1(C)CCC(CN2CCN(c3ccc(C(=O)NS(=O)(=O)c4ccc(OCC5CCOCC5)c(C(N)=O)c4)c(Oc4ccc5[nH]ccc5c4)c3)CC2)=C(c2ccc(Cl)cc2)C1 [EXAMPLE 357, N-{[3-(aminocarbonyl)-4-(tetrahydro-2H-pyran-4-ylmethoxy)phenyl]sulfonyl}-4-(4-{[2-(4-chlorophenyl)-4,4-dimethylcyclohex-1-en-1-yl]methyl}piperazin-1-yl)-2-(1H-indol-5-yloxy)benzamide]	>493.9
O=C(NS(=O)(=O)c1ccc(NC2CCN(C3CCOCC3)CC2)c([N+](=O)[O-])c1)c1ccc(N2CCN(Cc3ccc(C(F)(F)F)cc3-c3ccc(Cl)cc3)CC2)cc1Oc1ccc2[nH]ccc2c1 [EXAMPLE 358, 4-(4-{[4′-chloro-5-(trifluoromethyl)-1,1′-biphenyl-2-yl]methyl}piperazin-1-yl)-2-(1H-indol-5-yloxy)-N-({3-nitro-4-[(1-tetrahydro-2H-pyran-4-ylpiperidin-4-yl)amino]phenyl}sulfonyl)benzamide]	>121.8
CC(C)(C)c1ccc(CN2CCN(c3ccc(C(=O)NS(=O)(=O)c4ccc(NC5CCN(C6CCOCC6)CC5)c([N+](=O)[O-])c4)c(Oc4ccc5[nH]ccc5c4)c3)CC2)c(-c2ccc(Cl)cc2)c1 [EXAMPLE 359, 4-{4-[(5-tert-butyl-4′-chloro-1,1′-biphenyl-2-yl)methyl]piperazin-1-yl}-2-(1H-indol-5-yloxy)-N-({3-nitro-4-[(1-tetrahydro-2H-pyran-4-ylpiperidin-4-yl)amino]phenyl}sulfonyl)benzamide]	>49.0
Cn1cncc1CNc1ccc(S(=O)(=O)NC(=O)c2ccc(N3CCN(CC4=C(c5ccc(Cl)cc5)CC(C)(C)CC4)CC3)cc2Oc2ccc3[nH]ccc3c2)cc1[N+](=O)[O-] [EXAMPLE 360, 4-(4-{[2-(4-chlorophenyl)-4,4-dimethylcyclohex-1-en-1-yl]methyl}piperazin-1-yl)-2-(1H-indol-5-yloxy)-N-[(4-{[(1-methyl-1H-imidazol-5-yl)methyl]amino}-3-nitrophenyl)sulfonyl]benzamide]	633.9
CC1(C)CCC(CN2CCN(c3ccc(C(=O)NS(=O)(=O)c4ccc(S(=O)(=O)N5CCOCC5)cc4)c(Oc4ccc5[nH]ccc5c4)c3)CC2)=C(c2ccc(Cl)cc2)C1 [EXAMPLE 361, 4-(4-{[2-(4-chlorophenyl)-4,4-dimethylcyclohex-1-en-1-yl]methyl}piperazin-1-yl)-2-(1H-indol-5-yloxy)-N-{[4-(morpholin-4-ylsulfonyl)phenyl]sulfonyl}benzamide]	>92.6
CC1(C)CCC(CN2CCN(c3ccc(C(=O)NS(=O)(=O)c4ccc(NN5CCS(=O)(=O)CC5)c([N+](=O)[O-])c4)c(Oc4ccc5[nH]ccc5c4)c3)CC2)=C(c2ccc(Cl)cc2)C1 [EXAMPLE 362, 4-(4-{[2-(4-chlorophenyl)-4,4-dimethylcyclohex-1-en-1-yl]methyl}piperazin-1-yl)-N-({4-[(1,1-dioxidothiomorpholin-4-yl)amino]-3-nitrophenyl}sulfonyl)-2-(1H-indol-5-yloxy)benzamide]	3548.2
CC1(C)CCC(CN2CCN(c3ccc(C(=O)NS(=O)(=O)c4ccc(NC5CCC(N6CCOCC6)CC5)c([N+](=O)[O-])c4)c(Oc4ccc5[nH]ccc5c4)c3)CC2)=C(c2ccc(Cl)cc2)C1 (stereo not shown) [EXAMPLE 363, 4-(4-{[2-(4-chlorophenyl)-4,4-dimethylcyclohex-1-en-1-yl]methyl}piperazin-1-yl)-2-(1H-indol-5-yloxy)-N-({4-[(4-morpholin-4-ylcyclohexyl)amino]-3-nitrophenyl}sulfonyl)benzamide]	>3670.5
CC1(C)CCC(CN2CCN(c3ccc(C(=O)NS(=O)(=O)c4cnc(OCC5CCOCC5)c(Br)c4)c(Oc4cccc5[nH]ccc45)c3)CC2)=C(c2ccc(Cl)cc2)C1 [EXAMPLE 364, N-{[5-bromo-6-(tetrahydro-2H-pyran-4-ylmethoxy)pyridin-3-yl]sulfonyl}-4-(4-{[2-(4-chlorophenyl)-4,4-dimethylcyclohex-1-en-1-yl]methyl}piperazin-1-yl)-2-(1H-indol-4-yloxy)benzamide]	12197.3
CC1(C)CCC(CN2CCN(c3ccc(C(=O)NS(=O)(=O)c4cnc(NCC5CCOCC5)c(-c5nccs5)c4)c(Oc4cccc5[nH]ccc45)c3)CC2)=C(c2ccc(Cl)cc2)C1 [EXAMPLE 365, 4-(4-{[2-(4-chlorophenyl)-4,4-dimethylcyclohex-1-en-1-yl]methyl}piperazin-1-yl)-2-(1H-indol-4-yloxy)-N-{[6-[(tetrahydro-2H-pyran-4-ylmethyl)amino]-5-(1,3-thiazol-2-yl)pyridin-3-yl]sulfonyl}benzamide]	>612.9
CC1(C)CCC(CN2CCN(c3ccc(C(=O)NS(=O)(=O)c4ccc(NCC5CCOCC5)c(C#N)c4)c(Oc4cccc5[nH]ccc45)c3)CC2)=C(c2ccc(Cl)cc2)C1 [EXAMPLE 366, 4-(4-{[2-(4-chlorophenyl)-4,4-dimethylcyclohex-1-en-1-yl]methyl}piperazin-1-yl)-N-({3-cyano-4-[(tetrahydro-2H-pyran-4-ylmethyl)amino]phenyl}sulfonyl)-2-(1H-indol-4-yloxy)benzamide]	>121.0
CC1(C)CCC(CN2CCN(c3ccc(C(=O)NS(=O)(=O)c4ccc(NCC5CCOCC5)c(C#N)c4)c(Oc4ccc5[nH]ccc5c4)c3)CC2)=C(c2ccc(Cl)cc2)C1 [EXAMPLE 367, 4-(4-{[2-(4-chlorophenyl)-4,4-dimethylcyclohex-1-en-1-yl]methyl}piperazin-1-yl)-N-({3-cyano-4-[(tetrahydro-2H-pyran-4-ylmethyl)amino]phenyl}sulfonyl)-2-(1H-indol-5-yloxy)benzamide]	>143.2
CC(C)C[C@@H](CO)Nc1ccc(S(=O)(=O)NC(=O)c2ccc(N3CCN(CC4=C(c5ccc(Cl)cc5)CC(C)(C)CC4)CC3)cc2Oc2ccc3[nH]ccc3c2)cc1[N+](=O)[O-] [EXAMPLE 369, 4-(4-{[2-(4-chlorophenyl)-4,4-dimethylcyclohex-1-en-1-yl]methyl}piperazin-1-yl)-N-[(4-{[(1S)-1-(hydroxymethyl)-3-methylbutyl]amino}-3-nitrophenyl)sulfonyl]-2-(1H-indol-5-yloxy)benzamide]	>0.8
